Assay results reported in patent US9089136B2, “Pyrimidine compound and use thereof for pest control” (Sumitomo Chemical Company, Limited, priority 2010, dated 2015).

Experiments:
Aphis gossypii = experiment: Test Example 1: spray test against Aphis gossypii on cucumber seedling; type: in vivo; conditions: 144 h, 500 ppm active ingredient, formulation of Formulation Example 5 diluted with water, 20 ml sprayed on cucumber seedling, six days after spraying
Experimental: On the other hand, about 30 Aphis gossypii were incubated on a cucumber seeding (the first true leaf stage) planted in a plastic cup, and leaving it for a day. 20 ml of each of the above test spray solutions was sprayed on this seeding. Six days after spraying, the number of the surviving Aphis gossypii parasitized on the leaves of the cucumber was examined, and a control value was calculated according to the following equation: Control value(%)={1−(Cb×Tai)/(Cai×Tb))×100 wherein symbols represent as follows: Cb: the number of insects in a non-treated section before treatment, Cai: the number of insects in a non-treated section in observation, Tb: the number of insects in a treated-section before treatment, Tai: the number of insects in a treated-section in observation.

Bemisia tabaci = experiment: Test Example 2: spray test against Bemisia tabaci instar larvae on tomato seedling; type: in vivo; conditions: 168 h, 500 ppm active ingredient, formulation of Formulation Example 5 diluted with water, 10 ml/cup sprayed on tomato seedling, greenhouse at 25° C., after 7 days
Experimental: On the other hand, Bemisia tabaci adult was released on a tomato seeding (the third true leaf stage) planted in a polyethylene cup, and made to lay eggs for about 24 hours. The tomato seedling was kept in a greenhouse for 8 days. When instar larvae hatched from the eggs, the above test spray solution was sprayed in the amount of 10 ml/cup. The cup was kept in a greenhouse at 25° C. After the keeping for 7 days, the number of surviving instar larvae on the tomato leaves was examined, and a control value was calculated according to the following equation: Control value(%)={1−(Cb×Tai)/(Cai×Tb))×100 wherein symbols represent as follows: Cb: the number of pests in a non-treated section before treatment, Cai: the number of pests in a non-treated section in observation, Tb: the number of pests in a treated-section before treatment, Tai: the number of pests in a treated-section in observation.

Compound	pest or weed control at 500 ppm (Aphis gossypii) [%]	pest or weed control at 500 ppm (Bemisia tabaci) [%]
CC[S+]([O-])c1cncnc1-c1nc2cc(C(F)(F)F)ccc2n1C (stereo not shown) [Compound 8]	≥ 90	≥ 90
CCc1cncnc1-c1nc2cc(C(F)(F)F)cnc2o1 [Compound 15]	≥ 90	≥ 90
Cn1c(-c2ncncc2OCC(F)(F)F)nc2cc(C(F)(F)F)cnc21 [Compound 3]	≥ 90	≥ 90
CCS(=O)(=O)c1cncnc1-c1nc2cc(C(F)(F)F)cnc2n1C [Compound 6]	≥ 90	≥ 90
CCc1cncnc1-c1nc2cc(C(F)(F)F)ccc2o1 [Compound 10]	≥ 90	≥ 90
CCSc1cncnc1-c1nc2cc(C(F)(F)F)ccc2n1C [Compound 7, 2-(5-ethylthiopyrimidin-4-yl)-1-methyl-5-trifluoromethyl-1H-benzimidazole]	≥ 90	≥ 90
CC[S+]([O-])c1cncnc1-c1nc2cc(C(F)(F)F)cnc2n1C (stereo not shown) [Compound 5]	≥ 90	≥ 90
Cn1c(-c2ccncn2)nc2cc(C(F)(F)F)ccc21 [Compound 2]	≥ 90	≥ 90
Cn1c(-c2ncncc2Cl)nc2cc(C(F)(F)F)cnc21 [Compound 13]	≥ 90	≥ 90
CCS(=O)(=O)c1cncnc1-c1nc2cc(C(F)(F)F)ccc2n1C [Compound 9]	≥ 90	≥ 90
CCSc1cncnc1-c1nc2cc(C(F)(F)F)cnc2n1C [Compound 4]	≥ 90	≥ 90
